*1 amine or outer side, *2 acyl side, *3 side chain or, on linkers, in order; H or OH if unused. Where a SMILES comes first, the peptide text is derived from it. [ ]: non-standard residue; d: D form. The star is where a group is joined. Ac6c = NC1(C(=O)O)CCCCC1; Morpholide = C1CN(*)CCO1; Nle = CCCC[C@H](N)C(=O)O; Cbz = O=C(OCc1ccccc1)*; CO = O=C([*:1])[*:2]
Key:
Human cathepsin B = target: T1, Human cathepsin B (Homo sapiens, UniProt P07858); assay: Measurement of cathepsin B inhibitory activity (Z-Arg-Arg-MCA fluorescent substrate); format: biochemical; details: selectivity ratio B/K
T1 construct: purchased Calbiochem Corp
Protocol: (§1) Human cathepsin B (Calbiochem Corp.) was used for measurement. Activity was measured based on decomposition of the fluorescent substrate Z-Arg-Arg-MCA (Peptide Institute, Inc.) following the method of Barrett et al.^3). Namely, the decomposition of 20 mM Z-Arg-Arg-MCA by cathepsin B was measured in 100 mM sodium/potassium phosphate, 1 mM EDTA, 8 mM cysteine and 0.005% Brij35 at pH 6.0. The reaction was carried out for 30 minutes at 30° C., and stopped by the addition of 2×10^−5 M Calpeptin. After stopping the reaction, fluorescent intensity was measured at an excitation wavelength of 355 nm and measurement wavelength of 460 nm. Inhibition of cathepsin B by the compounds was examined using the reaction system described above.

Human cathepsin L = target: T2, Human cathepsin L (Homo sapiens, UniProt P07711); assay: Measurement of cathepsin L inhibitory activity (Z-Phe-Arg-MCA fluorescent substrate); format: biochemical; details: selectivity ratio L/K
T2 construct: purchased Calbiochem Corp
Protocol: as §1, with “cathepsin L” for “cathepsin B”, “substrate Z-Phe-Arg-MCA” for “substrate Z-Arg-Arg-MCA”, “[…] Z-Phe-Arg-MCA” for “mM Z-Arg-Arg-MCA”, “mM sodium acetate, 5” for “mM sodium/potassium phosphate, 1”, “EDTA, 4 mM urea,” for “EDTA,”, “pH 5.5.” for “pH 6.0.”

T2 sequence (P07711 114-333): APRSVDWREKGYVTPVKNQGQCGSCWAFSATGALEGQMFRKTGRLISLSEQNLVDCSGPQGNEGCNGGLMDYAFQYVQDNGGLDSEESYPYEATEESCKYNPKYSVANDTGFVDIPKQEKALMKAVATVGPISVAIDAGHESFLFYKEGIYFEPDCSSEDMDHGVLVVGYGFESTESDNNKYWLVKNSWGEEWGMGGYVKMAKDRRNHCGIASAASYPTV

With CC(C)[C@@H](C=O)NC(=O)C1(NC(=O)OCc2ccccc2)CCCCC1 [Example 7, N-[[1-[[(Phenylmethoxy)carbonyl]amino]cyclohexyl]carbonyl]-L-valinal] (Cbz-[Ac6c]-Val-aldehyde) the “B/K (ratio of cathepsin B IC50 to cathepsin K IC50)” value (Human cathepsin B) was 230 and the “L/K (ratio of cathepsin L IC50 to cathepsin K IC50)” value (Human cathepsin L) was 400.

For CCCC[C@@H](C=O)NC(=O)C1(NC(=O)OCc2ccccc2)CCCCC1 [Example 8, N-[[1-[[(Phenylmethoxy)carbonyl]amino]cyclohexyl]carbonyl]-L-norleucinal] (Cbz-[Ac6c]-[Nle]-aldehyde), the “B/K (ratio of cathepsin B IC50 to cathepsin K IC50)” value (Human cathepsin B) was 35 and the “L/K (ratio of cathepsin L IC50 to cathepsin K IC50)” value (Human cathepsin L) was 50.

For CC(C)[C@@H](C=O)NC(=O)C1(NC(=O)c2ccco2)CCCCC1 [Example 9, N-[[1-[(2-Furanylcarbonyl)amino]cyclohexyl]carbonyl]-L-valinal], the “B/K (ratio of cathepsin B IC50 to cathepsin K IC50)” value (Human cathepsin B) was 87 and the “L/K (ratio of cathepsin L IC50 to cathepsin K IC50)” value (Human cathepsin L) was 370.

In the case of CCCC[C@@H](C=O)NC(=O)C1(NC(=O)N2CCOCC2)CCCCC1 [Example 10, N-[[1-[(4-Morpholinylcarbonyl)amino]cyclohexyl]carbonyl]-L-norleucinal] ({Morpholide-CO}-[Ac6c]-[Nle]-aldehyde), the “B/K (ratio of cathepsin B IC50 to cathepsin K IC50)” value (Human cathepsin B) was 12 and the “L/K (ratio of cathepsin L IC50 to cathepsin K IC50)” value (Human cathepsin L) was 21.

For CC(C)C[C@H](NC(=O)OCc1ccccc1)C(=O)N[C@H](C=O)C(C)C [Reference Example 184, N—[N-[(Phenylmethoxy)carbonyl]-L-leucyl]-L-valinal] (Cbz-Leu-Val-aldehyde), the “B/K (ratio of cathepsin B IC50 to cathepsin K IC50)” value (Human cathepsin B) was 58 and the “L/K (ratio of cathepsin L IC50 to cathepsin K IC50)” value (Human cathepsin L) was 74.

In the case of CCCC[C@@H](C=O)NC(=O)[C@H](CC(C)C)NC(=O)OCc1ccccc1 [Reference Example 185, N—[N-[(Phenylmethoxy)carbonyl]-L-leucyl]-L-norleucinal], the “B/K (ratio of cathepsin B IC50 to cathepsin K IC50)” value (Human cathepsin B) was 11 and the “L/K (ratio of cathepsin L IC50 to cathepsin K IC50)” value (Human cathepsin L) was 15.

CCCC[C@@H](C=O)NC(=O)[C@H](CC(C)C)NC(=O)N1CCOCC1 [Reference Example 186, N—[N-(4-Morpholinylcarbonyl)-L-leucyl]-L-norleucinal] was tested, and the “B/K (ratio of cathepsin B IC50 to cathepsin K IC50)” value (Human cathepsin B) was 4.3 and the “L/K (ratio of cathepsin L IC50 to cathepsin K IC50)” value (Human cathepsin L) was 7.3.

With CC(C)C[C@H](NC(=O)c1ccco1)C(=O)N[C@H](C=O)C(C)C [Reference Example 187, N—[N-(2-Furanylcarbonyl)-L-leucyl]-L-valinal] the “B/K (ratio of cathepsin B IC50 to cathepsin K IC50)” value (Human cathepsin B) was 30 and the “L/K (ratio of cathepsin L IC50 to cathepsin K IC50)” value (Human cathepsin L) was 35.

From patent US8957205B2, “Cycloalkane carboxamide derivatives and production process of same” (Seikagaku Corporation, priority 2006, dated 2015)
